# Measurements from the supplement of paper PMC10307832.
# What was measured:
# Test in all cases: relative viability (nuclei count vs DMSO), 5 days (fraction); higher = more cells survive
# NCI-H650 = system: NCI-H650
# Procedure, shortened: (§1)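 The day after seeding in 1536-well plates, lung cancer cell lines were treated by pin tool with a single drug, or with a fixed anchor-drug dose together with five library-drug doses (not always all listed) in √10 steps. After 5 days, a combined fix-and-stain solution (final 0.05% Triton X-100, 1% formaldehyde, 1 ug/ml Hoechst) was added. Nuclei counted on 4× images gave relative viability as treated counts over vehicle counts, reported as the median of duplicate plates.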
# NCI-H1993 = system: NCI-H1993
# Procedure, shortened: as §1
# NCI-H23 = system: NCI-H23
# Procedure, shortened: as §1
# NCI-H1355 = system: NCI-H1355
# Procedure, shortened: as §1
# LOU-NH91 = system: LOU-NH91
# Procedure, shortened: as §1
# NCI-H460 = system: NCI-H460
# Procedure, shortened: as §1
# NCI-H1915 = system: NCI-H1915
# Procedure, shortened: as §1
# EKVX = system: EKVX
# Procedure, shortened: as §1
# BEN = system: BEN
# Procedure, shortened: as §1
# LC-2-ad = system: LC-2-ad
# Procedure, shortened: as §1
# A-427 = system: A-427
# Procedure, shortened: as §1
# NCI-H1793 = system: NCI-H1793
# Procedure, shortened: as §1
# LCLC-97TM1 = system: LCLC-97TM1
# Procedure, shortened: as §1
# NCI-H1650 = system: NCI-H1650
# Procedure, shortened: as §1
# NCI-H1666 = system: NCI-H1666
# Procedure, shortened: as §1
# RERF-LC-KJ = system: RERF-LC-KJ
# Procedure, shortened: as §1
# LU99A = system: LU99A
# Procedure, shortened: as §1
# NCI-H838 = system: NCI-H838
# Procedure, shortened: as §1
# PC-3 [JPC-3] = system: PC-3 [JPC-3]
# Procedure, shortened: as §1
# SW 1573 = system: SW 1573
# Procedure, shortened: as §1
# NCI-H520 = system: NCI-H520
# Procedure, shortened: as §1
# NCI-H2347 = system: NCI-H2347
# Procedure, shortened: as §1
# NCI-H2228 = system: NCI-H2228
# Procedure, shortened: as §1
smiles,measurement,setting,value
Cc1cnc(-c2cnc(NCCNc3ccc(C#N)cn3)nc2-c2ccc(Cl)cc2Cl)[nH]1 + CC(=O)c1c(C)c2cnc(Nc3ccc(N4CCNCC4)cn3)nc2n(C2CCCC2)c1=O [Palbociclib] (partner 0.5 µM),relative viability,NCI-H650; first compound 0.08 µM,0.311
same,relative viability,NCI-H650; first compound 0.253 µM,0.334
same,relative viability,NCI-H650; first compound 0.8 µM,0.317
same,relative viability,NCI-H650; first compound 2.53 µM,0.351
same,relative viability,NCI-H1993; first compound 0.08 µM,0.718
same,relative viability,NCI-H1993; first compound 0.253 µM,0.566
same,relative viability,NCI-H1993; first compound 0.8 µM,0.621
same,relative viability,NCI-H1993; first compound 2.53 µM,0.679
same,relative viability,NCI-H23; first compound 0.08 µM,0.378
same,relative viability,NCI-H23; first compound 0.253 µM,0.49
same,relative viability,NCI-H23; first compound 0.8 µM,0.515
same,relative viability,NCI-H23; first compound 2.53 µM,0.616
same,relative viability,NCI-H1355; first compound 0.08 µM,0.427
same,relative viability,NCI-H1355; first compound 0.253 µM,0.383
same,relative viability,NCI-H1355; first compound 0.8 µM,0.407
same,relative viability,NCI-H1355; first compound 2.53 µM,0.383
same,relative viability,LOU-NH91; first compound 0.08 µM,0.547
same,relative viability,LOU-NH91; first compound 0.253 µM,0.515
same,relative viability,LOU-NH91; first compound 0.8 µM,0.581
same,relative viability,LOU-NH91; first compound 2.53 µM,0.527
same,relative viability,NCI-H460; first compound 0.08 µM,0.154
same,relative viability,NCI-H460; first compound 0.253 µM,0.0849
same,relative viability,NCI-H460; first compound 0.8 µM,0.135
same,relative viability,NCI-H460; first compound 2.53 µM,0.146
same,relative viability,NCI-H1915; first compound 0.08 µM,0.547
same,relative viability,NCI-H1915; first compound 0.8 µM,0.571
same,relative viability,NCI-H1915; first compound 2.53 µM,0.601
same,relative viability,EKVX; first compound 0.08 µM,0.493
same,relative viability,EKVX; first compound 0.253 µM,0.316
same,relative viability,EKVX; first compound 0.8 µM,0.417
same,relative viability,EKVX; first compound 2.53 µM,0.444
same,relative viability,BEN; first compound 0.08 µM,0.495
same,relative viability,BEN; first compound 0.253 µM,0.506
same,relative viability,BEN; first compound 0.8 µM,0.687
same,relative viability,BEN; first compound 2.53 µM,0.545
same,relative viability,LC-2-ad; first compound 0.08 µM,0.473
same,relative viability,LC-2-ad; first compound 0.8 µM,0.485
same,relative viability,LC-2-ad; first compound 2.53 µM,0.436
same,relative viability,A-427; first compound 0.08 µM,0.537
same,relative viability,A-427; first compound 0.253 µM,0.539
same,relative viability,A-427; first compound 0.8 µM,0.567
same,relative viability,A-427; first compound 2.53 µM,0.563
same,relative viability,NCI-H1793; first compound 0.08 µM,0.336
same,relative viability,NCI-H1793; first compound 0.253 µM,0.288
same,relative viability,NCI-H1793; first compound 0.8 µM,0.282
same,relative viability,NCI-H1793; first compound 2.53 µM,0.386
same,relative viability,LCLC-97TM1; first compound 0.08 µM,0.282
same,relative viability,LCLC-97TM1; first compound 0.253 µM,0.17
same,relative viability,LCLC-97TM1; first compound 0.8 µM,0.215
same,relative viability,LCLC-97TM1; first compound 2.53 µM,0.209
same,relative viability,NCI-H1650; first compound 0.08 µM,0.368
same,relative viability,NCI-H1650; first compound 0.253 µM,0.306
same,relative viability,NCI-H1650; first compound 0.8 µM,0.306
same,relative viability,NCI-H1650; first compound 2.53 µM,0.258
same,relative viability,NCI-H1666; first compound 0.08 µM,0.607
same,relative viability,NCI-H1666; first compound 0.253 µM,0.626
same,relative viability,NCI-H1666; first compound 0.8 µM,0.615
same,relative viability,NCI-H1666; first compound 2.53 µM,0.609
same,relative viability,RERF-LC-KJ; first compound 0.08 µM,1.18
same,relative viability,RERF-LC-KJ; first compound 0.253 µM,0.905
same,relative viability,RERF-LC-KJ; first compound 0.8 µM,1.01
same,relative viability,RERF-LC-KJ; first compound 2.53 µM,0.956
same,relative viability,LU99A; first compound 0.08 µM,0.375
same,relative viability,LU99A; first compound 0.253 µM,0.388
same,relative viability,LU99A; first compound 0.8 µM,0.442
same,relative viability,LU99A; first compound 2.53 µM,0.389
same,relative viability,NCI-H838; first compound 0.08 µM,0.259
same,relative viability,NCI-H838; first compound 0.253 µM,0.256
same,relative viability,NCI-H838; first compound 0.8 µM,0.253
same,relative viability,NCI-H838; first compound 2.53 µM,0.389
same,relative viability,PC-3 [JPC-3]; first compound 0.08 µM,0.533
same,relative viability,PC-3 [JPC-3]; first compound 0.253 µM,0.488
same,relative viability,PC-3 [JPC-3]; first compound 0.8 µM,0.543
same,relative viability,PC-3 [JPC-3]; first compound 2.53 µM,0.503
same,relative viability,SW 1573; first compound 0.08 µM,0.387
same,relative viability,SW 1573; first compound 0.253 µM,0.336
same,relative viability,SW 1573; first compound 0.8 µM,0.368
same,relative viability,SW 1573; first compound 2.53 µM,0.146
same,relative viability,NCI-H520; first compound 0.08 µM,0.332
same,relative viability,NCI-H520; first compound 0.253 µM,0.202
same,relative viability,NCI-H520; first compound 0.8 µM,0.224
same,relative viability,NCI-H520; first compound 2.53 µM,0.265
same,relative viability,NCI-H2347; first compound 0.08 µM,0.411
same,relative viability,NCI-H2347; first compound 0.253 µM,0.406
same,relative viability,NCI-H2347; first compound 0.8 µM,0.438
same,relative viability,NCI-H2347; first compound 2.53 µM,0.493
same,relative viability,NCI-H2228; first compound 0.08 µM,0.83
same,relative viability,NCI-H2228; first compound 0.253 µM,0.716
same,relative viability,NCI-H2228; first compound 0.8 µM,0.734
same,relative viability,NCI-H2228; first compound 2.53 µM,0.648
